{"source": "patent US20060275812A1", "about": "“Assay for agonists and antagonists of ion channels and for regulators of genetic expression” (University of Pittsburgh of the Commonwealth System of …, priority 2005, published 2006)", "key": {"[1]": {"target": "rat TRPV1 receptor (Rattus norvegicus, UniProt O35433)", "sequence (O35433 whole entry)": "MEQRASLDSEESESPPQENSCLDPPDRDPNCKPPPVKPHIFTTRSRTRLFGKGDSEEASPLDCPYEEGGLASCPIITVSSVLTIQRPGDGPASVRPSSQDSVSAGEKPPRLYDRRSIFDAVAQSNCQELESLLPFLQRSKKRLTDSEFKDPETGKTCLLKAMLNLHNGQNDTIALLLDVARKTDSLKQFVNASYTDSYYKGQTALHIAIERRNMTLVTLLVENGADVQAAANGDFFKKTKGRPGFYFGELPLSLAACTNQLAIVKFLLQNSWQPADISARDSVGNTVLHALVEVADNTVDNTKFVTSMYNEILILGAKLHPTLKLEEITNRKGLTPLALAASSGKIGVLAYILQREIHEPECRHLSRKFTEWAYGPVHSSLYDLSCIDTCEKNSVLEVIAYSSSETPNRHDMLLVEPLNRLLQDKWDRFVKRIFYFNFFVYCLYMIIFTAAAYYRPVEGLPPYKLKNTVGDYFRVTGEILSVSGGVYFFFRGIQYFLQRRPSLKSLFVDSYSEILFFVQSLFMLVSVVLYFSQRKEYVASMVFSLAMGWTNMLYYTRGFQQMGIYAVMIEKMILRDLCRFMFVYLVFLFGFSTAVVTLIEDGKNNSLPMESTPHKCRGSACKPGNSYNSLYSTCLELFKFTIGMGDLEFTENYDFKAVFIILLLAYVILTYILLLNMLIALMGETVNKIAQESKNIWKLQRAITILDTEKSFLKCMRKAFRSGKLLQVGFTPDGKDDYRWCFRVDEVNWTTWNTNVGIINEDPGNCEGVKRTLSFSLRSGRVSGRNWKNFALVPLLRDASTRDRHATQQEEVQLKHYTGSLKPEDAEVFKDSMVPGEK", "experiment": "Whole cell patch clamp recordings of capsaicin induced currents"}, "[2]": {"target": "T1, TRPV1 (Rattus norvegicus, UniProt O35433)", "T1 construct": "expressed in transfected cells; host or cells: ICP4/ICP27-complementing 7b cells (Vero-derived) infected with HSV-1 vector vTT", "T1 sequence (O35433 whole entry)": "as above", "experiment": "Intracellular calcium measurement (FURA-2)", "assay_type": "cell-based", "description": "Free intracellular calcium was measured by photon scanning on a dual excitation fluorimeter (PTI, Lawrenceville, N.J.). vTT or QOZ infected 7b cells were plated in 6 well plates containing 13.5×20 mm coverslips. Infected cells (8 hpi, 3 PFU/cell) were rinsed with 1× Hank's balanced salt solution (HBSS) and loaded with 2 μM FURA-2 (Molecular Probes Inc., Eugene, Oreg.) (Sneddon et al., 2000) for 1 hour at 37° C. in a 5% CO2 incubator. Coverslips with FURA-2 loaded cells were then placed in a cuvette containing HBBS and then separately subjected to capsaicin at either 3 or 0.3 μM concentrations. Calcium flux following the application of each concentration of capsaicin was measured at 2 Hz and graphed. Results were calibrated by adding 5 μM ionomycin to obtain the maximum fluorescence ratio, followed by addition of 10 mM EGTA to obtain the minimum fluorescence ratio. A Kd of FURA-2 for calcium of 224 nM was assumed."}, "[3]": {"target": "T1, TRPV1", "experiment": "Viral growth assay (vTT / vHG titers by plaque assay)", "assay_type": "cell-based"}, "[4]": {"target": "T1, TRPV1", "experiment": "Capsaicin selection against vTT in mixed vHG:vTT infections", "assay_type": "cell-based"}, "[5]": {"details": "vTT infected cells, BIM pre-incubation, n=3"}, "[6]": {"details": "vTT infected cells, mean±SEM, n=8"}, "[7]": {"details": "vTT infected 7b cells, 5 μM ionomycin"}}, "note": "Entries after “also recorded” stand apart in the source; their conditions may differ.", "data": [{"smiles": "CN(C)CCCn1cc(C2=C(c3c[nH]c4ccccc34)C(=O)NC2=O)c2ccccc21.Cl", "note": "[BIM, bisindolylmaleimide I HCl]", "values": [{"measurement": "effect of pre-incubation on capsaicin currents", "setting": "[1]; vTT infected 7b cells, compared to BIM untreated", "value": "significantly lower amplitude and rapidly desensitizing currents"}, {"measurement": "Capsaicin (nA)", "setting": "[1]; [5]", "value": "−2.2 ± 1.2", "unit": "nA"}, {"measurement": "Capsaicin Desensitization Time-course (tau, s)", "setting": "[1]; [5]", "value": "53.4 ± 15.4", "unit": "s"}]}, {"smiles": "O=C(O)CN(CCOCCOCCN(CC(=O)O)CC(=O)O)CC(=O)O", "note": "[EGTA]", "values": [{"measurement": "intracellular calcium signal after capsaicin and ionomycin", "setting": "[2]; vTT infected 7b cells, 10 mM EGTA", "value": "return to baseline levels"}]}, {"smiles": "CCCC(=O)O[C@@H]1[C@@H](C)[C@@]2(O)[C@@H](C=C(CO)C[C@]3(O)C(=O)C(C)=C[C@@H]23)[C@@H]2C(C)(C)[C@]12OC(=O)CCC", "note": "[PDBu, phorbol 12,13-dibutyrate]", "values": [{"measurement": "effect on capsaicin current after the first phase of desensitization", "setting": "[1]; vTT infected 7b cells, PDBu 5 μM", "value": "did not affect the current; also recorded: could not be enhanced"}]}, {"smiles": "C=C(C)[C@]12C[C@@H](C)[C@@]34O[C@](Cc5ccccc5)(O[C@@H]1[C@@H]3C=C(COC(=O)Cc1ccc(O)c(OC)c1)C[C@]1(O)C(=O)C(C)=C[C@@H]41)O2", "note": "[RTX, resiniferatoxin]", "values": [{"measurement": "growth ratio (GR), highest observed difference", "setting": "[3]; 1 μM RTX, 72 hpi, p<0.05, n=4", "value": 474}, {"measurement": "capsaicin dose relative to RTX dose giving similar reduction in vTT viral titers", "setting": "[3]; nanomolar RTX, all time points", "value": "~100", "unit": "fold"}]}, {"smiles": "COc1cccc(NC(=O)/C=C/c2ccc(Cl)cc2)c1", "note": "[SB-366791]", "values": [{"measurement": "vTT viral titers in the presence of capsaicin", "setting": "[3]; 1 μM and 10 μM SB-366791 + 0.5 μM capsaicin, all time points, p<0.05, n=4", "value": "dose dependent rescue"}, {"measurement": "replication of control vector vHG", "setting": "[3]; CAP and SB-366791 together", "value": "did not affect"}, {"measurement": "replication of vHG or vTT, antagonist alone", "setting": "[3]; SB-366791 alone at 1 and 10 μM", "value": "did not affect"}]}, {"smiles": "COc1cc(CNC(=O)CCCC/C=C/C(C)C)ccc1O", "note": "[capsaicin]", "values": [{"measurement": "lowest concentration with significant differences in replication between vHG and vTT", "setting": "[3]", "value": 0.3, "unit": "µM"}, {"measurement": "vTT replication", "setting": "[3]", "value": "specifically inhibited"}, {"measurement": "vHG titers", "setting": "[3]; 3 μM CAP alone", "value": "without affecting"}, {"measurement": "growth ratio (GR), vHG to vTT virus yield, greatest differential", "setting": "[3]; 3 μM capsaicin, 72 hpi, p<0.05, n=4", "value": "~500", "unit": "fold"}, {"measurement": "Capsaicin (nA)", "setting": "[1]; no virus (uninfected cells)", "value": "No"}, {"measurement": "response to capsaicin stimulation", "setting": "[1]; vHG (control) infected 7b cells", "value": "do not respond; also recorded: did not respond"}, {"measurement": "Capsaicin (nA)", "setting": "[1]; vHG infected cells", "value": "No"}, {"measurement": "inward current following stimulation with capsaicin", "setting": "[1]; vTT infected 7b cells, 0.5 μM capsaicin, FIG. 3 trace", "value": 9, "unit": "nA"}, {"measurement": "Capsaicin (nA)", "setting": "[1]; [6]", "value": "−6.0 ± 0.6", "unit": "nA"}, {"measurement": "Capsaicin Desensitization Time-course (tau, s)", "setting": "[1]; [6]", "value": "280.6 ± 45.1", "unit": "s"}, {"measurement": "intracellular calcium response", "setting": "[2]; QOZ (control) infected cells, 0.3 or 3 μM capsaicin", "value": "no effect"}, {"measurement": "intracellular calcium", "setting": "[2]; vTT infected 7b cells, 8 hpi, 3 μM capsaicin", "value": "significant increase"}, {"measurement": "intracellular calcium response", "setting": "[2]; vTT infected 7b cells, 0.3 μM capsaicin, versus 3 μM", "value": "smaller response"}, {"measurement": "vHG (GFP+) percent output after two passages", "setting": "[4]; 3 μM capsaicin, 0.005% vHG input (1:20,000 vHG:vTT)", "value": 95, "unit": "%"}, {"measurement": "vHG (GFP+) percent output after one passage", "setting": "[4]; 3 μM capsaicin, 0.005% vHG input (1:20,000 vHG:vTT), 72 hpi", "value": 66, "unit": "%"}, {"measurement": "vHG proportion after two passages", "setting": "[4]; capsaicin, 1:100,000 vHG input", "value": 40, "unit": "%"}]}, {"smiles": "C[C@H](CCC(=O)O)C[C@H](C)C[C@H](C)C(=O)/C=C(\\O)[C@H](C)C[C@H](C)C/C=C/[C@@H](C)[C@@H](O)[C@@H](C)[C@@H](O)C[C@@H]1CC[C@@](C)([C@H]2CC[C@@](C)([C@@H](C)O)O2)O1", "note": "[ionomycin]", "values": [{"measurement": "calcium influx", "setting": "[2]; QOZ infected cells, 5 μM ionomycin", "value": "maximal calcium influx"}, {"measurement": "intracellular calcium response after 0.3 μM capsaicin", "setting": "[2]; [7]", "value": "further increased"}, {"measurement": "intracellular calcium response after 3 μM capsaicin", "setting": "[2]; [7]", "value": "did not further increase"}]}, {"smiles": "N.N.N.N.N.N.N.N.N.N.N.N.N.N.[Cl-].[Cl-].[Cl-].[Cl-].[Cl-].[Cl-].[O-2].[O-2].[Ru+3].[Ru+3].[Ru+4]", "note": "[ruthenium red]", "values": [{"measurement": "replication of vTT in the presence of capsaicin", "setting": "[3]", "value": "completely restored"}, {"measurement": "vector replication, antagonist alone", "setting": "[3]", "value": "unaffected"}, {"measurement": "antagonism of capsaicin-induced vTT specific currents", "setting": "[1]; vTT infected 7b cells, RuR 5 μM in FIG. 3", "value": "brought the current back to baseline; also recorded: antagonized"}]}]}
